In series [1] the test system is purified wild type (WT) luciferase (Photinus pyralis (luciferase) [Ppy Luc]). The following applies: cited from earlier work.
For series [2], the system named is purified firefly luciferase (luc) expressed from E. coli. To be noted: cited from earlier work; for λmax (lit.): literature value.
Series [3] has as its system purified wild type (WT) luciferase (Photinus pyralis (luciferase) [Ppy Luc]). The series can be described thus: Purified protein luminescence assays (Michaelis-Menten kinetics, relative emission intensity). The class given is biochemical. To be noted: for Vmax / Km: Michaelis-Menten fit; for Km: apparent Km, WT luciferase, read-out: Km (App.); for luminescence output when treated with luciferase: 0.1 μM solution, luciferase in enzyme buffer, 10 nM. On the procedure: FIG. 10 is a relative luminescence emission intensity of the core luciferins (6-hydroxy, 6-amino, 6-thiol) at 0.1 μM substrate concentration and at a final luciferase concentration of 10 nM.
FIG. 11 illustrates luminescence output of 0.1 μM of protected D-thioluciferin sulfide, D-thioluciferin homodisulfide, and free D-thioluciferin at a final luciferase concentration of 10 nM (control readings were recorded for substrates in the absence of the luc enzyme). The RLU were determined in triplicate and are represented as the mean±SEM.
FIG. 13 is a Michaelis-Menten graph for D-Thioluciferin. […] The assays were performed in triplicate and are represented as the mean and each curve was fit to the Michaelis-Menten equation by nonlinear regression (GraphPad 5.0) to determine apparent Km and Vmax.
Luminescence assays were initiated by adding 30 μL of purified luciferase in enzyme buffer (20 mM Tris [pH 7.4], 0.1 mM EDTA, 1 mM TCEP, and 0.8 mg/mL BSA) to 30 μL 2× substrate in substrate buffer (20 mM Tris [pH 7.4], 0.1 mM EDTA, 8 mM MgSO4, and 4 mM ATP) in a black 96-well plate. Imaging was performed one minute after enzyme addition using a Xenogen® IVIS-100® at a final enzyme concentration of 10 nM and final substrate concentrations ranging from 0.122 to 250 μM. Data acquisition and analysis was performed with Living Image® software. Data are reported as total flux (p/s) for each ROI corresponding to each well of the 96-well plate.

For series [4] the following is noted: literature value; cited from earlier work.
The subject of the next series is WT luciferase (Ppy Luc). As to the kind of experiment: Burst kinetics assays / rates of reduction in luminescence. Type of series: biochemical, Photinus pyralis. The procedure: FIG. 9 is a burst kinetics profile of purified 10 nM luciferase treated with 100 μM D-thioluciferin.
[…] […] Data acquisition was performed with SIS for 2020n v1.9.0 software. Data are reported as Relative Light Units (RLU). To correct for the wavelength sensitivity of the PMT in the 20/20n, total flux was also measured using the IVIS-100 as described above with a final enzyme concentration of 10 nM and a final substrate concentration of 250 μM. […] The correction factor of each enzyme/substrate pair was calculated by dividing the normalized IVIS data by the normalised 20/20n data. All 20/20n data were then multiplied by their respective correction factors.

In series [5] the test system is purified firefly luciferase (luc) expressed from E. coli. As to the kind of experiment: Bioluminescence emission scans. The class given is biochemical, Photinus pyralis. The following applies: for bioluminescence emission wavelength: FIG. 7, 10 nM luciferase with 100 μM substrate; for λmax: bioluminescence emission with luciferase. On the procedure:
FIG. 7 is a bioluminescence emission spectrum for 10 nM luciferase with 100 μM D-thioluciferin.
Purified luciferase in enzyme buffer was rapidly injected into a cuvette containing substrate in substrate buffer to a final enzyme concentration of 100 nM and a final substrate concentration of 10 μM. The emission from 400 to 800 nm was recorded in a fluorimeter with closed excitation slits 10 s after injection.

The test system of series [6] is purified firefly luciferase (10 nM) expressed from E. coli. The series can be described thus: Inhibition of firefly luciferase by D-thioluciferin sulfide (thioacrylate). The class given is biochemical, Photinus pyralis. The following applies: D-thioluciferin 10 μM, increasing sulfide. On the procedure: FIG. 14 is a bar graph showing potential inhibitory effects of firefly luciferase by D-thioluciferin sulfide (thioacrylate). D-thioluciferin (10 μM) was treated with purified firefly luciferase (10 nM) expressed from E. coli and the luminescence recorded in the absence and presence of the sulifide.

Series [7] in a line: Fluorescence spectrophotometry (excitation emission spectra). Type of series: physicochemical. The following applies: for fluorescence emission intensity: excitation at 390 nm, FIG. 15. The procedure:
The free D-thioluciferin has a greater intensity relative to the sulfide which is promising for further sensor development.
Excitation and emission spectra were recorded on a Varian Cary Eclipse fluorometer equipped with a regulated temperature cell holder and Hellma, Suprasil® quartz fluorescence cuvettes of 10 mm pathlength and 1.5 mL volume capacity. Emission spectra were recorded at an excitation wavelength corresponding to previously recorded absorption maxima. Samples were prepared as a 0.1 mM DMSO solution, unless otherwise stated, and were scanned from 200 nm to 800 nm (Ex. Slit/Em. Slit 5 nm) at a scan rate of 600.00 nm/mn. Data were analysed using Scan Software Version 1.1.

Where [8] appears, read: FIG. 10, 0.1 μM substrate, 10 nM luciferase.
The mark [9] stands for this setting: measured for 15 seconds post-specified time.

We go through five compounds from patent US11149034B2, “Derivatives of luciferin and methods for their synthesis” (UNIVERSITY OF CAPE TOWN, priority 2017, dated 2021).

Where “and” joins values, the source holds several entries; their conditions need not be identical. Equal entries are not always repeated. Where two headings read alike, the source gives them in different places.

Regarding `Nc1ccc2nc(C3=N[C@@H](C(=O)O)CS3)sc2c1` [D-aminoluciferin, (S)-2-(6-aminobenzo[d]thiazol-2-yl)-4,5-dihydrothiazole-4-carboxylic acid], the “Vmax (lit.)” value in series [1] (literature value) is recorded as 169 ± 2.6 photons/min. Also, the Michaelis-Menten constant (Km) in series [1] (literature value, read-out: Km (lit)) was 0.62 ± 0.05 µM. In addition, in series [1] (previously calculated, comparison, read-out: Km previously calculated), the Michaelis constant (Km) is 0.39 to 0.69 µM. In series [2], the “λmax (lit.)” value is 594 nm. In series [3] (setting [8]), the “emission signal, fold less intense compared to D-luciferin” value was found to be 100 fold. Also, in series [3] (10 nM luciferase), the Vmax amounted to 13 ± 2.2 RLU/s. Also, in series [3], the Michaelis constant (Km) worked out at 0.39 ± 0.08 µM. The “Fluorescence (lit.)” value in series [4] is 517 nm. Moreover, the “time post-addition of rapid decrease in luminescent activity” value in the series on WT luciferase (Ppy Luc) was found to be 1 min. In addition, in the series on WT luciferase (Ppy Luc) (setting [9]), the “Rate 5 min post-addition (rate of reduction in luminescence)” value is given as 1.216 ± 0.1305 RLU/s and the “Rate 20 minutes post addition (rate of reduction in luminescence)” value was 0.1510 ± 0.007506 RLU/s. In series [5], this compound came in with a bioluminescence emission wavelength of 593 nm and a λmax of 597 nm.

On to `O=C(O)[C@H]1CSC(c2nc3ccc(O)cc3s2)=N1` [D-luciferin, (S)-2-(6-hydroxybenzo[d]thiazol-2-yl)-4,5-dihydrothiazole-4-carboxylate], for which the “relative emission λmax” value in series [2] (background statement) is reported as 594 nm. In addition, the “λmax (lit.)” value in series [2] is reported as 551 nm. The “relative luminescence emission intensity, fold greater than both D-aminoluciferin and D-thioluciferin” value in series [3] (setting [8]) was 100 fold. The Vmax in series [3] (10 nM luciferase) is 57 ± 13 RLU/s. In series [3], the Michaelis-Menten constant (Km) is 8.3 µM and 8 µM. Besides, the “Fluorescence (lit.)” value in series [4] is given as 528 nm. Moreover, the “time post-addition of rapid decrease in luminescent activity” value in the series with WT luciferase (Ppy Luc) is 10 min. Further, in the series with WT luciferase (Ppy Luc) (setting [9]), the “Rate 5 min post-addition (rate of reduction in luminescence)” value is recorded as 9.300 ± 0.9815 RLU/s and the “Rate 20 minutes post addition (rate of reduction in luminescence)” value turned out to be 0.3400 ± 0.05773 RLU/s. In series [5], this compound gave a bioluminescence emission wavelength of 547 nm and a λmax of 553 nm. The bioluminescence emission wavelength in series [5] (listed as D-Luciferin) worked out at 557 nm.

Turning to `O=C(O)C1CSC(c2nc3ccc(SSc4ccc5nc(C6=NC(C(=O)O)CS6)sc5c4)cc3s2)=N1` [D-thioluciferin disulfide], the “luminescence output when treated with luciferase” value in series [3] is on record as “much higher luminescence output than its corresponding control”. Also, the “ability to produce bioluminescence (luciferase substrate)” value in series [3] (FIG. 11) was “neither of which appeared to be bioluminescent substrates”.

In the case of `O=C(/C=C/Sc1ccc2nc(C3=N[C@@H](C(=O)O)CS3)sc2c1)OCc1ccccc1` [D-thioluciferin thioacrylate, (S,E)-2-(6-((3-(benzyloxy)-3-oxoprop-1-en-1-yl)thio)benzo[d]thiazol-2-yl)-4,5-dihydrothiazole-4-carboxylic acid], the inhibition of luciferase entry in series [6] (FIG. 14) is recorded as “strongly inhibitory”; in series [6] (FIG. 14, listed as D-thioluciferin sulfide (thioacrylate)), “decrease in emission intensity with increasing concentration of the sulfide”. The fluorescence emission intensity entry in series [7] is on record as “only weakly fluorescent”. The “luminescence output when treated with luciferase” value in series [3] was “negligible”. The “ability to produce bioluminescence (luciferase substrate)” value in series [3] (FIG. 11) is “neither of which appeared to be bioluminescent substrates”.

As to `O=C(O)[C@H]1CSC(c2nc3ccc(S)cc3s2)=N1` [D-thioluciferin, (S)-2-(6-mercaptobenzo[d]thiazol-2-yl)-4,5-dihydrothiazole-4-carboxylic acid], the fluorescence emission intensity result in series [7] is recorded as “strong fluorescence emission”. In addition, in series [7] (fluorescence emission), the Fluorescence was 500 nm. Besides, in series [3], the “emission, fold greater over the background” value is listed as more than 100 fold; the Km is 0.117 µM and 0.1 µM. Besides, the “emission signal, fold less intense compared to D-luciferin” value in series [3] (setting [8]) came to 100 fold. For the same compound, in series [3] (FIG. 11, 0.1 μM, 10 nM luciferase), the “luminescence output, fold greater than protected thioacrylate (sulfide)” value turned out to be 90 fold. Also, in series [3] (10 nM luciferase), the Vmax was 0.7597 ± 0.1071 RLU/s and 0.6661 ± 0.1522 RLU/s. Besides, the Km in series [3] (listed as D-Thioluciferin) is 0.098 ± 0.0147 µM. The “period over which light of constant intensity is sustained” value in the series on WT luciferase (Ppy Luc) is 20 min. In addition, the burst kinetics profile entry in the series with WT luciferase (Ppy Luc) (FIG. 9, 10 nM luciferase, 100 μM substrate) is recorded as “robust initial burst of light followed by sustained light output of much lower intensity”. In the series with WT luciferase (Ppy Luc) (setting [9]), the “Rate 1 min post-peak emission (rate of reduction in luminescence)” value came out at 4.929 ± 0.1584 RLU/s, the “Rate 5 min post-addition (rate of reduction in luminescence)” value came to 0.0067 RLU/s and the “Rate 20 minutes post addition (rate of reduction in luminescence)” value amounted to 0.0022 RLU/s. Also, in series [5], the bioluminescence emission wavelength was 599 nm and 600 nm; the λmax turned out to be 599 nm.

In general, Km refers to the concentration of substrate that gives half-maximal velocity.
